# Data published in patent US20220267374A1, “IMMUNITY INDUCER AND PHARMACEUTICAL COMPOSITION FOR PREVENTING OR TREATING AGING-RELATED DISEASES” (priority 2019, published 2022).
# Ends that are not written are not given here.
# What was measured:
# GPNMB protein = assay: Antibody titer by ELISA in plasma of vaccinated mice; format: in vivo, C57BL/6 mice; conditions: vs control vaccine group; KLH-bound peptide 20 μg with Titer Max Gold s.c. at 8 weeks of age, HFD-fed mice; plasma up to 6 weeks; FIG. 2A
# Protocol: First, the antibody titers of the obtained two peptide vaccines were examined. Peptide vaccine 1 or peptide vaccine 2 (20 μg) and Titer Max Gold adjuvant (Titer Max USA) conjugated with KLH as carrier protein for induction of cytotoxic antibody were mixed in two syringes according to the manufacturer's protocol for emulsification. Subsequently, eight-week-old C57BL/6 mice fed with HFD from 4 weeks of age were subcutaneously injected with KLH-binding antigen peptide (20 μg) with a Titer Max Gold adjuvant to induce cytotoxic antibodies. C57BL/6 mice in the control group were subcutaneously injected with a KLH solution (hereinafter, referred to as “control vaccine”) mixed with Titer Max Gold in an equal amount. Plasma was collected from the tail vein of each mouse immediately after administration of the peptide vaccine and after 2, 4, and 6 weeks for antibody titer analysis. The antibody titer produced by injection of each peptide was measured by ELISA. Specifically, first, a 96-well microtiter plate (Nunc-Immuno MicroWell 96-well solid plate, Thermo Scientific) was coated using a carbonate buffer containing peptide vaccine 1 or peptide vaccine 2 bonded to bovine serum albumin (BSA). […] After reacting with the TMB substrate (Sigma-Aldrich, T0440), the optical density was measured at 450 nm (0D450) using a microtiter plate reader (iMark microplate reader, Bio-Rad).
# GPNMB-positive cells = assay: Analysis of Gpnmb-dependent luciferase activity (in vivo IVIS imaging); parameters: species or system Gpnmb-DTR mouse; conditions: HFD-fed Gpnmb-DTR mouse, 16 weeks of age, s.c. vaccination at 8 weeks of age; vs control vaccine; FIG. 2B
# Protocol: Gpnmb-DTR mouse bred by feeding normal diet or HFD for 4 weeks, and Gpnmb-DTR mouse bred by feeding HFD for 4 weeks, and then injecting DT (50 μg/kg body weight) at 2-week intervals (12 weeks of age and 14 weeks of age) intraperitoneally twice while continuing to feed HFD (16 weeks of age) were subjected to in vivo luciferase imaging analysis using the IVIS imaging system (Perkin Elmer). Mice were shaved ventrally, anesthetized with isoflurane (Wako Pure Chemicals Industries), and injected intraperitoneally with luciferin (150 mg/kg body weight) according to the manufacturer's instructions (Vivo-Glo; Promega). Luciferase activity was monitored 5 minutes after luciferin administration. Signals were analyzed using Living Image software (Perkin Elmer) to quantify luciferase activity. In FIG. 1B, “Before” is a Gpnmb-DTR mouse before HFD was fed (6 weeks of age), “HFD” is a Gpnmb-DTR mouse that was fed with HFD from 6 weeks of age and bred for 6 weeks (12 weeks of age), and “After DT” is a Gpnmb-DTR mouse that was bred by feeding HFD for 4 weeks and then injecting DT (50 μg/kg body weight) at 2-week intervals (12 weeks of age and 14 weeks of age) intraperitoneally twice while continuing to feed HFD (16 weeks of age). […]
# [1] = test system: replicative aging adipose precursor cells derived from C57BL/6 mice; assay: ADCC (Antibody-Dependent-Cellular-Cytotoxicity) activity analysis; format: cell-based; conditions: purified IgG from mice administered with the vaccine; NK effector cells/target cells 1/1; LDH release, 4 hours; FIG. 2E
# Protocol: ADCC (Antibody-Dependent-Cellular-Cytotoxicity) was evaluated using a CytoTox 96 non-radioactive cytotoxicity assay kit (Promega). Specifically, natural killer (NK) cells were isolated from C57BL/6 mice as effector cells using Ficoll-Paque Plus (GE Healthcare) and EasySep mouse NK cell isolation kit (STEMCELL). Subsequently, as target cells, replicative aging adipose precursor cells derived from C57BL/6 mice were seeded on a 96-well plate so as to have 10^4 cells per well. Subsequently, purified IgG antibody obtained from C57BL/6 mice bred by feeding HFD from 4 weeks of age and administered with peptide vaccine 1 or a control vaccine by subcutaneous injection at a time point of 8 weeks of age was added to each well, and incubated at 37° C. for 30 minutes. After incubation, NK cells were seeded in each well so that a ratio of the cell number of effector cells to the target cells (effector cells/target cells) was 1/1. Subsequently, the plates were incubated at 37° C. for an additional 4 hours. Subsequently, lactate dehydrogenase released in a supernatant was detected using a microtiter plate reader (iMark microplate reader, Bio-Rad). To evaluate cell death, a ratio of lysed cells to the total number of cultured cells was calculated. In FIG. 2E, “Cont vac” is a C57BL/6 mouse administered with the control vaccine, and “Gpnmb vac” is a C57BL/6 mouse administered with peptide vaccine 1.
# p19^Arf = assay: Analysis of p19Arf-dependent luciferase activity; format: in vivo, p19^Arf-DTR-Luc mouse; conditions: HFD-fed p19Arf-DTR-Luc mouse, 21 weeks of age, s.c. vaccination at 13 weeks of age; vs control vaccine; FIG. 2F
# [2] = Metabolic test (glucose tolerance test and insulin tolerance test); format: in vivo, C57BL/6 mice; conditions: HFD-fed mice, 16 weeks of age, s.c. vaccination at 8 weeks of age; compared to control vaccine; FIG. 2I
# Protocol: Mice were bred individually from 1 week before the test. On the day of the glucose tolerance test (GTT), mice were fasted for 6 hours, followed by intraperitoneal injection of glucose at a dose of 1 g/kg (body weight) in the early afternoon. For the insulin tolerance test (ITT), mice were intraperitoneally administered with human insulin (1 U/kg (body weight)). After administration of glucose or insulin, tail venous blood was collected 0, 15, 30, 60 and 120 minutes later, and the blood glucose level was measured with a glucose analyzer (Sanwa Chemical Research Institute).
# A metabolic test was performed using the same method as in “5.” of Reference Example 1, except that C57BL/6 mice (16 weeks of age) bred by feeding HFD from 4 weeks of age and administered with peptide vaccine 1, peptide vaccine 2, or control vaccine by subcutaneous injection at a time point of 8 weeks of age were used. In FIG. 2I, “Cont vaccine” is a C57BL/6 mouse administered with a control vaccine, “Gpnmb vaccine 1” is a C57BL/6 mouse administered with peptide vaccine 1, and “Gpnmb vaccine 2” is a C57BL/6 mouse administered with peptide vaccine 2.
sequence,measurement,setting,value
"RRGDGRWKD (also: KLH conjugate; listed as Mus musculus) [peptide vaccine 1, peptide of positions 63 to 71 of mouse GPNMB protein]",antibody titer against GPNMB protein,GPNMB protein,significantly higher
same,Gpnmb-dependent luciferase activity,GPNMB-positive cells,decreased
same,antibody-dependent cellular cytotoxicity (ADCC activity),[1],exhibits antibody-dependent cellular cytotoxicity (ADCC activity)
same,p19Arf-dependent luciferase activity in visceral adipose tissue,p19^Arf,decrease
same,metabolic abnormality induced by HFD intake (glucose tolerance test and insulin tolerance test),[2],significantly improved
